Laboratory results taken from ChEMBL document CHEMBL3351739, “Design, synthesis and biological evaluation of 6-(nitroimidazole-1H-alkyloxyl)-4-anilinoquinazolines as efficient EGFR inhibitors exerting cytotoxic effects both under normoxia and hypoxia” (Eur J Med Chem, 2015).

Columns and labels:
[1] = target: Epidermal growth factor receptor (Homo sapiens, UniProt P00533); assay: Inhibition of wild type EGFR (unknown origin) by Z'-Lyte kinase assay
HT-29 [2] = assay: Cytotoxicity against human HT-29 cells after 72 hrs under normoxia conditions by SRB assay; type: functional, cell-based; conditions: HT-29, 72 h
HT-29 [3] = assay: Cytotoxicity against human HT-29 cells after 72 hrs under hypoxia conditions by SRB assay; type: functional, cell-based; conditions: HT-29, 72 h
[4] = Reductive drug activation assessed as reactive radical formation at 4.1 umol in pH 7.4 PBS in presence of zinc dust and ammonium chloride by HPLC-Q-ToF-MS method; conditions: buffer
[5] = Metabolic stability in mouse liver microsomes assessed as compound remaining at 5 uM after 30 mins under normoxia conditions in presence of NADPH by HPLC method; type: ADME; conditions: read-out: Stability
[6] = Metabolic stability in mouse liver microsomes assessed as compound remaining at 5 uM after 30 mins under hypoxia conditions in presence of NADPH by HPLC method; type: ADME; conditions: read-out: Stability

Chain of Epidermal growth factor receptor (P00533 whole entry): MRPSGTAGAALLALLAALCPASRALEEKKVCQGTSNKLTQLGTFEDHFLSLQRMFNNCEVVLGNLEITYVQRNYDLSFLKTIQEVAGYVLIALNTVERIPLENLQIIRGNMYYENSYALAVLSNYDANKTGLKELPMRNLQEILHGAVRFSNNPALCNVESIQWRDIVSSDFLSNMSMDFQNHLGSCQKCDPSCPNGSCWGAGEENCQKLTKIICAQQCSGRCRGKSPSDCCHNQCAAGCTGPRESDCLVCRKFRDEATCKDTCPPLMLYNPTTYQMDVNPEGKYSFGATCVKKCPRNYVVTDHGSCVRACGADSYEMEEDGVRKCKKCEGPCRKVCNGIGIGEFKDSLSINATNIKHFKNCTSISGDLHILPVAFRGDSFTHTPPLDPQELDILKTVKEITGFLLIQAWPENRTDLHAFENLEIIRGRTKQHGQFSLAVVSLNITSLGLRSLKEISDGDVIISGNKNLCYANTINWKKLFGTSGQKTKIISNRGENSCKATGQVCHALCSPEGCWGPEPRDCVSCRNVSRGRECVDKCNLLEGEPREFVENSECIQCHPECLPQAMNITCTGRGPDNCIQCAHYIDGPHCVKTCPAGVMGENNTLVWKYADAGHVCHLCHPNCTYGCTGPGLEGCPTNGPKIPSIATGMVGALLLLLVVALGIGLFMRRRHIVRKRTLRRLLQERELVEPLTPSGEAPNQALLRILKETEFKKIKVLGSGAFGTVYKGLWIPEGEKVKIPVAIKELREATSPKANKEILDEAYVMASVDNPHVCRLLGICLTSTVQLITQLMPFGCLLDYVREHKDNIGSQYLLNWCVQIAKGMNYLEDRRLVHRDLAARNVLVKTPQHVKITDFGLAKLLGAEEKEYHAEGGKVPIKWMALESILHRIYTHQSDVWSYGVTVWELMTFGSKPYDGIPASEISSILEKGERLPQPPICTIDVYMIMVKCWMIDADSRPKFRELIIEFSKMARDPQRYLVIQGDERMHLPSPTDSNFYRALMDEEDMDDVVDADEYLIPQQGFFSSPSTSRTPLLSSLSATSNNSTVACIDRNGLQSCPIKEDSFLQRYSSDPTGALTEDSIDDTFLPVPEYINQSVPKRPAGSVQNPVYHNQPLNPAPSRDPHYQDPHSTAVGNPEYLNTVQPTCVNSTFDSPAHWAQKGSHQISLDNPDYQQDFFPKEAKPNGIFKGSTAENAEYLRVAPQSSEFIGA

| SMILES | IC50 [1] [µM] | IC50 (HT-29 [2]) [µM] | IC50 (HT-29 [3]) [µM] | Drug metabolism [4] | remaining at 0.5 h, 5 µM [5] [%] | remaining at 0.5 h, 5 µM [6] [%] |
| --- | --- | --- | --- | --- | --- | --- |
| COc1cc2ncnc(Nc3ccc(OCc4cccc(F)c4)c(Cl)c3)c2cc1OCCCCCn1ccnc1[N+](=O)[O-] | 0.0512 | 3.09 | 1.36 |  |  |  |
| C#Cc1cccc(Nc2ncnc3cc(OC)c(OCCCCCCn4ccnc4[N+](=O)[O-])cc23)c1 | 0.0005 | 2.93 | 3.46 |  |  |  |
| COc1cc2ncnc(Nc3ccc(OCc4cccc(F)c4)c(Cl)c3)c2cc1OCCCCn1ccnc1[N+](=O)[O-] | 0.0285 | 1.87 | 2.07 |  |  |  |
| C#Cc1cccc(Nc2ncnc3cc(OC)c(OCCCCCn4ccnc4[N+](=O)[O-])cc23)c1 | 0.00049 | 3.55 | 3.05 |  |  |  |
| COc1cc2ncnc(Nc3ccc(F)c(Cl)c3)c2cc1OCCCn1c([N+](=O)[O-])cnc1C | 0.00343 | 23.2 | 11.5 |  |  |  |
| COc1cc2ncnc(Nc3cccc(Br)c3)c2cc1OCCCn1ccnc1[N+](=O)[O-] | 0.00066 | 4.48 | 4.01 |  |  |  |
| COc1cc2ncnc(Nc3ccc(F)c(Cl)c3)c2cc1OCCCCCn1ccnc1[N+](=O)[O-] | 0.00051 | 17.6 | 5.59 |  |  |  |
| COc1cc2ncnc(Nc3ccc(F)c(Cl)c3)c2cc1OCCCCn1ccnc1[N+](=O)[O-] | 0.00047 | 2.21 | 1.62 | metabolite_detected | 70 | < 10 |
| COc1cc2ncnc(Nc3ccc(F)c(Cl)c3)c2cc1OCCCn1ccnc1[N+](=O)[O-] | 0.00089 | 8.39 | 7.17 |  |  |  |
| COc1cc2ncnc(Nc3cccc(Br)c3)c2cc1OCCCn1c([N+](=O)[O-])cnc1C | 0.00118 | 15.7 | 5.41 |  |  |  |
| Nc1n[n+]([O-])c2ccccc2[n+]1[O-] [TIRAPAZAMINE] |  | > 50 | 9.45 |  |  |  |
| C#Cc1cccc(Nc2ncnc3cc(OC)c(OCCCCn4ccnc4[N+](=O)[O-])cc23)c1 | 0.00056 | 10.1 | 6.9 |  |  |  |
| COc1cc2ncnc(Nc3ccc(F)c(Cl)c3)c2cc1OCCCCCCn1ccnc1[N+](=O)[O-] |  | 12.9 | 9.81 |  |  |  |
| COc1cc2ncnc(Nc3ccc(F)c(Cl)c3)c2cc1OCCn1c([N+](=O)[O-])cnc1C | 0.0049 | > 50 | > 50 |  |  |  |
| COc1cc2ncnc(Nc3ccc(OCc4cccc(F)c4)c(Cl)c3)c2cc1OCCCn1ccnc1[N+](=O)[O-] | 0.0383 | 15.5 | 20 |  |  |  |
| COc1cc2ncnc(Nc3ccc(F)c(Cl)c3)c2cc1OCCCN1CCOCC1 [GEFITINIB] |  |  |  |  | > 90 | > 90 |
| C#Cc1cccc(Nc2ncnc3cc(OC)c(OCCCn4ccnc4[N+](=O)[O-])cc23)c1 | 0.00108 | 5.55 | 5.53 |  |  |  |
| COc1cc2ncnc(Nc3ccc(F)c(Cl)c3)c2cc1OCCCCn1c([N+](=O)[O-])cnc1C | 0.00053 | 8.21 | 9.98 |  |  |  |
| COc1cc2ncnc(Nc3ccc(OCc4cccc(F)c4)c(Cl)c3)c2cc1OCCCCCCn1ccnc1[N+](=O)[O-] | 0.0151 | > 50 | 24.3 |  |  |  |
| COc1cc2ncnc(Nc3ccc(F)c(Cl)c3)c2cc1OCCn1ccnc1[N+](=O)[O-] | 0.00305 | > 50 | 10 |  |  |  |
